Tests used:
[1] = parameters: species or system human; details: in vivo
Experimental: (§1) Eligible subjects were randomized to receive either taniborbactam or placebo in a 3:1 ratio within dose cohorts in both the SAD and MAD parts of the study. Each dose cohort in the SAD part of the study enrolled 8 subjects, and each dose cohort in the MAD part of the study enrolled 12 subjects. In the SAD part, subjects received 62.5, 125, 250, 500, 1,000, or 1,500 mg taniborbactam as a 2-h intravenous (i.v.) infusion. In the MAD part, subjects received 2-h intravenous i.v. infusions of 250, 500, or 750 mg taniborbactam q8h over 10 days, ending after a final morning dose on day 10 (total of 28 doses).
Safety was assessed based on the occurrence of adverse events and evaluation of laboratory tests (chemistry, hematology, urinalysis), physical examination, vital signs, and 12-lead electrocardiograms (ECGs) that were performed throughout the study. Safety was followed through 7 days postdose in the SAD part and followed through 7 days post-last dose in the MAD part.

[2] = Single-ascending-dose (SAD) pharmacokinetics in plasma and urine, healthy adult volunteers; type: in vivo, human; details: for Tmax: median (range); for Fe: excreted unchanged in urine over 48 h; for Ae: urine over 48 h
Experimental: as §1
Blood samples for assay of taniborbactam in plasma were collected predose and at 1, 2, 2.25, 2.5, 2.75, 3, 4, 6, 8, 12, 26, and 50 h after the start of drug infusion in the SAD part. For the MAD part, blood samples to determine taniborbactam plasma concentrations were collected predose and at 1, 2, 2.25, 2.5, 2.75, 3, 4, 6, and 8 h following the first dose (day 1) and predose and at 1, 2, 2.25, 2.5, 2.75, 3, 4, 6, 10, 14, and 26 h following the last dose (day 10). Urine was collected predose and at intervals of 0 to 4, 4 to 8, 8 to 24, and 24 to 48 h after the start of the infusion in the SAD part for the higher-dose groups (500 to 1,500 mg taniborbactam). For the MAD part, urine was collected through the dosing interval following the last dose using collection intervals of 0 to 4 and 4 to 8 h after the start of the infusion. At the end of each urine collection interval, the volume of each urine collection was recorded and a sample was taken.
Plasma and urine samples were assayed for taniborbactam and screened for possible metabolites. Human dipotassium ethylenediaminetetraacetic acid (K2EDTA) plasma samples were processed using protein precipitation and assayed using ultra-high-performance liquid chromatography with tandem mass spectrometric detection (LC-MS/MS). Both low- and high-range methods were developed and validated for plasma samples, with calibration ranges of 5 to 5,000 ng/ml and 100 to 100,000 ng/ml, respectively. Acidified urine samples were processed using solid-phase extraction and assayed using a validated LC-MS/MS method with a calibration range of 5.0 to 5,000 ng/ml. For both matrices, separation was accomplished using a Waters Acquity HSS T3 column (Milford, MA) at 50°C, and gradient elution using 10 mM ammonium formate with 1% formic acid as mobile phase A and 50:50:1 acetonitrile:methanol:formic acid (vol/vol/vol) as mobile phase B. A triple quadrupole mass spectrometer (API Triple Quad 5500; AB Sciex, Framingham, MA) equipped with a turbo-ion spray set was used for detection in positive ion mode, and quantification was based on multiple reaction monitoring. The internal standard used in the assays was D4-taniborbactam.
Individual subject plasma and urine taniborbactam pharmacokinetic parameters were evaluated using noncompartmental analysis methods (Phoenix WinNonlin, Certara, Princeton, NJ). Single-dose pharmacokinetic parameters were determined in the SAD part, and both single-dose (day 1) and multiple-dose (day 10) pharmacokinetic parameters were determined in the MAD part. Estimated pharmacokinetic parameters included Cmax, time to Cmax (Tmax), AUCtau, AUC0–inf, t1/2, CL, VZ, Ae, Fe, and CLR. The actual sample times were used to calculate the pharmacokinetic parameters. Calculation of λZ was based on best fit of concentrations in the observed terminal elimination phase of a profile, and statistical inclusion of any parameter based on λZ required the goodness of fit statistic (R^2) to be greater than 0.8. Pharmacokinetic data were summarized using descriptive statistics by treatment. Dose proportionality based on Cmax and AUC was determined using linear regression to calculate the slope and 90% CI and observing whether a slope of 1 was included in the confidence interval. The dose proportionality analysis included subject body weight as a covariate in the analysis.

[3] = single dose 62.5 mg, 2-h i.v. infusion, mean (%CV)
[4] = single dose 125 mg, 2-h i.v. infusion, mean (%CV)
[5] = single dose 250 mg, 2-h i.v. infusion, mean (%CV)
[6] = single dose 500 mg, 2-h i.v. infusion, mean (%CV)
[7] = single dose 1,000 mg, 2-h i.v. infusion, mean (%CV)
[8] = single dose 1,000 mg, mean (%CV)
[9] = single dose 1,500 mg, 2-h i.v. infusion, mean (%CV)
[10] = single dose 1,500 mg, mean (%CV)

Compound: NCCN[C@H]1CC[C@H](CC(=O)N[C@H]2Cc3cccc(C(=O)O)c3OB2O)CC1 [Taniborbactam]
- subjects with adverse events considered by the investigator to be treatment related [1]: 4 subjects
- t1/2 ([2]; higher single-dose groups (500 to 1,500 mg)): ~5.7 h
- AUCinf [2, 3]: 11,284 (13.3) h · ng/ml
- CL [2, 3]: 5.6 (14.1) liters/h
- Cmax [2, 3]: 3,398 (17.0) ng/ml
- Vz [2, 3]: 28.4 (18.7) liters
- Tmax ([2]; single dose 62.5 mg, 2-h i.v. infusion): 2.0 (2.0, 2.0) h
- t1/2 ([2]; single dose 62.5 mg, 2-h i.v. infusion, terminal elimination, mean (%CV)): 3.5 (9.3) h
- AUCinf [2, 4]: 20,326 (13.7) h · ng/ml
- CL [2, 4]: 6.2 (12.6) liters/h
- Cmax [2, 4]: 5,023 (13.8) ng/ml
- Vz [2, 4]: 30.2 (14.2) liters
- Tmax ([2]; single dose 125 mg, 2-h i.v. infusion): 2.0 (2.0, 2.0) h
- t1/2 ([2]; single dose 125 mg, 2-h i.v. infusion, terminal elimination, mean (%CV)): 3.4 (5.8) h
- AUCinf [2, 5]: 41,106 (19.0) h · ng/ml
- CL [2, 5]: 6.3 (17.5) liters/h
- Cmax [2, 5]: 11,533 (13.8) ng/ml
- Vz [2, 5]: 34.6 (17.1) liters
- Tmax ([2]; single dose 250 mg, 2-h i.v. infusion): 2.0 (2.0, 2.0) h
- t1/2 ([2]; single dose 250 mg, 2-h i.v. infusion, terminal elimination, mean (%CV)): 4.0 (31.1) h
- AUCinf [2, 6]: 82,499 (9.2) h · ng/ml
- CL [2, 6]: 6.1 (9.0) liters/h
- Cmax [2, 6]: 22,650 (11.4) ng/ml
- Vz [2, 6]: 50.2 (12.1) liters
- Tmax ([2]; single dose 500 mg, 2-h i.v. infusion): 2.0 (2.0, 2.0) h
- t1/2 ([2]; single dose 500 mg, 2-h i.v. infusion, terminal elimination, mean (%CV)): 5.7 (4.3) h
- Fe ([2]; single dose 500 mg, mean (%CV)): 64.1 (9.6) %
- Fe ([2]; single dose 500 mg, mean (%CV), listed as taniborbactam): 64.1%
- CLR ([2]; single dose 500 mg, mean (%CV)): 3.9 (15.5) liters/h
- Ae ([2]; single dose 500 mg, mean (%CV)): 320.6 (9.6) mg
- AUCinf [2, 7]: 156,542 (15.7) h · ng/ml
- CL [2, 7]: 6.5 (15.7) liters/h
- Cmax [2, 7]: 43,317 (14.8) ng/ml
- Vz [2, 7]: 54.0 (17.9) liters
- Tmax ([2]; single dose 1,000 mg, 2-h i.v. infusion): 2.0 (2.0, 2.1) h
- t1/2 ([2]; single dose 1,000 mg, 2-h i.v. infusion, terminal elimination, mean (%CV)): 5.7 (3.3) h
- Fe [2, 8]: 76.7 (9.4) %
- Fe ([2]; single dose 1,000 mg, mean (%CV), listed as taniborbactam): 76.7%
- CLR [2, 8]: 5.0 (16.7) liters/h
- Ae [2, 8]: 766.9 (9.4) mg
- AUCinf [2, 9]: 263,422 (17.8) h · ng/ml
- CL [2, 9]: 5.9 (19.2) liters/h
- Cmax [2, 9]: 71,817 (16.3) ng/ml
- Vz [2, 9]: 49.4 (21.6) liters
- Tmax ([2]; single dose 1,500 mg, 2-h i.v. infusion): 2.0 (2.0, 2.0) h
- t1/2 ([2]; single dose 1,500 mg, 2-h i.v. infusion, terminal elimination, mean (%CV)): 5.8 (6.2) h
- Fe [2, 10]: 66.6 (12.9) %
- Fe ([2]; single dose 1,500 mg, mean (%CV), listed as taniborbactam): 66.6%
- CLR [2, 10]: 3.9 (16.8) liters/h
- Ae [2, 10]: 998.7 (12.9) mg
- half-life of the earlier phase that characterizes the majority of exposure ([2]; single doses, also seen within dose intervals on multiple dosing): about 2 h

Reference: publication PMC8522722, “Safety and Pharmacokinetics in Human Volunteers of Taniborbactam (VNRX-5133), a Novel Intravenous β-Lactamase Inhibitor” (Antimicrobial Agents and Chemotherapy, 2021)
